US20230192617A1, “AZABICYCLIC(THIO)AMIDES AS FUNGICIDAL COMPOUNDS” (Bayer CropScience Aktiengesellschaft, priority 2020, published 2023)

Assays:
Alternaria brassicae = test: In vivo preventive test on Alternaria brassicae (leaf spot on radish or cabbage); conditions: 500 ppm of active ingredient, preventive spray on radish or cabbage, evaluated 3 to 4 days after inoculation, read-out: efficacy
Method in brief: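 Young radish or cabbage plants were sprayed with compound dissolved in DMSO/acetone/Tween 80 and diluted in water; controls received solvent only. Inoculation by spraying A. brassicae spore suspension 24 h later, then 3–4 days at 20 °C and 100% relative humidity.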

[1] = test system: Colletotrichum lindemuthianum; test: In vivo preventive test on Colletotrichum lindemuthianum (leaf spot on bean); conditions: 168 h, 500 ppm of active ingredient, preventive spray on bean, evaluated 7 days after inoculation, read-out: efficacy
Method in brief: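 Young bean plants sprayed with compound in DMSO/acetone/Tween 80 diluted in water; solvent-only controls. Inoculated 24 h later with C. lindemuthianum spore suspension, then kept 24 h at 20 °C/100% RH and 6 days at 20 °C/90% RH.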

Septoria tritici = test: B-9. Septoria tritici in vitro cell test; assay type: cell-based; conditions: Zymoseptoria tritici, 168 h; 20 ppm of active ingredient; 7 days incubation; liquid culture, absorbance; read-out: efficacy (inhibition of fungal growth)
Method in brief: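 Compounds from DMSO stocks (final DMSO ≤1%) were added to liquid medium containing S. tritici spores to test inhibition of germination and mycelial growth. After 7 days, mycelium growth was read spectrometrically and inhibition derived from absorbance versus fungicide-free control wells.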

Row | Structure (SMILES) | pest or weed control at 500 ppm (Alternaria brassicae) | pest or weed control at 500 ppm [1] | inhibition at 20 ppm (Septoria tritici)
1 | Cc1cccc(Oc2cnc3ccccc3c2C(=O)NCC(F)(F)c2ccc(C)cc2C)c1 [I-222] | 90 to 100% | 70 to 79% | 80 to 89%
2 | Cc1ccc(C(F)(F)CNC(=O)c2c(Oc3cccc(Cl)c3F)nnc3c2CCC3)c(Cl)c1 [I-143] | 90 to 100% | 90 to 100% | 90 to 100%
3 | Cc1ccc(C(F)CNC(=O)c2c(Oc3cccc(C4CC4)c3F)nnc3c2CCCC3)c(C)c1 (stereo not drawn) [I-137] | 90 to 100% | 90 to 100% | 70 to 79%
4 | Cc1ccc(C(F)(F)CNC(=O)c2c(Oc3cccc(C4CC4)c3F)nnc3c2CCC3)c(C)c1 [I-134] | 90 to 100% | 90 to 100% | 90 to 100%
5 | O=C(NCC(F)(F)c1ccc(Br)cc1Cl)c1c(Oc2cccc(C(F)(F)F)c2)nnc2c1COCC2 [I-229] | 90 to 100% | 90 to 100% | 90 to 100%
6 | Cc1ccc(C(F)(F)CNC(=O)c2c(Oc3cccc(C(F)(F)F)c3)nnc3c2COCC3)c(Cl)c1 [I-124] | 90 to 100% | 90 to 100% | 90 to 100%
7 | Cc1cc(Br)ccc1C(F)(F)CNC(=O)c1c(Oc2cccc(Cl)c2F)nnc2c1CCCC2 [I-152] | 90 to 100% | 90 to 100% | 90 to 100%
8 | O=C(NCC(F)c1ccc(Cl)cc1Cl)c1c(Oc2cccc(C3CC3)c2)nnc2c1CCCC2 (stereo not drawn) [I-119, 3-(3-cyclopropylphenoxy)-N-[2-(2,4-dichlorophenyl)-2-fluoro-ethyl]-5,6,7,8-tetrahydrocinnoline-4-carboxamide] | 90 to 100% | 90 to 100% | 90 to 100%
9 | Cc1ccc(C(F)(F)CNC(=O)c2c(Oc3cccc(Cl)c3F)nnc3c2CCCC3)c(C)c1 [I-130] | 90 to 100% | 90 to 100% | 90 to 100%
10 | Cc1ccc(C(F)(F)CNC(=O)c2c(Oc3cccc(Cl)c3)nnc3c2CCCC3)c(C)c1 [I-121] | 90 to 100% | 90 to 100% | 90 to 100%
11 | Cc1ccc(C(F)(F)CNC(=O)c2c(Oc3cccc(C(F)F)c3)nnc3c2CCCC3)c(Cl)c1 [I-243] | 90 to 100% | 90 to 100% | 90 to 100%
12 | Cc1cc(Cl)ccc1C(F)(F)CNC(=O)c1c(Oc2cccc(Cl)c2)nnc2c1CCCC2 [I-146] | 90 to 100% | 90 to 100% | 90 to 100%
13 | Cc1ccc(C(F)(F)CNC(=O)c2c(Oc3cccc(Br)c3F)nnc3c2CCCC3)c(C)c1 [I-128] | 90 to 100% | 90 to 100% | 90 to 100%
14 | Cc1cc(Br)ccc1C(F)(F)CNC(=O)c1c(Oc2cccc(C(F)(F)F)c2)nnc2c1COCC2 [I-127] | 90 to 100% | 90 to 100% | 90 to 100%
15 | Cc1ccc(C(F)(F)CNC(=O)c2c(Oc3cccc(C(F)(F)F)c3)nnc3c2CCC3)c(C)c1 [I-132] | 90 to 100% | 90 to 100% | 90 to 100%
16 | Cc1ccc(C(F)(F)CNC(=O)c2c(Oc3cccc(C4CC4)c3F)nnc3c2CCC3)c(Cl)c1 [I-144] | 90 to 100% | 90 to 100% | 80 to 89%
17 | O=C(NCC(F)(F)c1ccc(Cl)cc1Cl)c1c(Oc2cccc(C(F)(F)F)c2)nnc2c1COCC2 [I-228] | 90 to 100% | 90 to 100% | 90 to 100%
18 | O=C(NCC(F)(F)c1ccc(Br)cc1Cl)c1c(Oc2cccc(Cl)c2F)nnc2c1CCC2 [I-213] | 90 to 100% | 90 to 100% | 90 to 100%
19 | Cc1ccc(C(F)(F)CNC(=O)c2c(Oc3cccc(C4CC4)c3F)nnc3ccccc23)c(C)c1 [I-071, 3-(3-cyclopropyl-2-fluoro-phenoxy)-N-[2-(2,4-dimethyl-phenyl)-2,2-difluoro-ethyl]cinnoline-4-carboxamide] | 90 to 100% | 90 to 100% | 80 to 89%
20 | Cc1ccc(C(F)CNC(=O)c2c(Oc3cccc(Cl)c3F)nnc3c2CCCC3)c(C)c1 (stereo not drawn) [I-136] | 90 to 100% | 90 to 100% | 90 to 100%
21 | O=C(NC[C@H](F)c1ccc(Cl)cc1Cl)c1c(Oc2cccc(C(F)(F)F)c2)cnc2ccoc12 (racemic) [I-067] | 90 to 100% | 90 to 100% | 70 to 79%
22 | O=C(NCC(F)c1ccc(Cl)cc1Cl)c1c(Oc2cccc(Cl)c2F)nnc2c1CCCC2 (stereo not drawn) [I-149] | 90 to 100% | 90 to 100% | 90 to 100%

Row | Structure (SMILES) | pest or weed control at 500 ppm (Alternaria brassicae) | pest or weed control at 500 ppm [1] | inhibition at 20 ppm (Septoria tritici)
23 | Cc1ccc(C(F)(F)CNC(=O)c2c(Oc3cccc(C(F)F)c3)cnc3ccccc23)c(C)c1 [I-220] | 90 to 100% | 80 to 89% | 90 to 100%
24 | O=C(NCC(F)c1ccc(Cl)cc1Cl)c1c(Oc2cccc(C(F)(F)F)c2)nnc2c1COCC2 (stereo not drawn) [I-126] | 90 to 100% | 90 to 100% | 90 to 100%
25 | Cc1cc(Cl)ccc1C(F)(F)CNC(=O)c1c(Oc2cccc(C(F)(F)F)c2)nnc2c1CCCC2 [I-145] | 90 to 100% | 90 to 100% | 90 to 100%
26 | Cc1ccc(C(F)(F)CNC(=O)c2c(Oc3cccc(Cl)c3F)nnc3c2CCCC3)c(Cl)c1 [I-140, 3-(3-chloro-2-fluoro-phenoxy)-N-[2-(2-chloro-4-methyl-phenyl)-2,2-difluoro-ethyl]-5,6,7,8-tetrahydrocinnoline-4-carboxamide] | 90 to 100% | 90 to 100% | 90 to 100%
27 | Cc1ccc(C(F)(F)CNC(=O)c2c(Oc3cccc(C(F)(F)F)c3)nnc3c2CCC3)c(Cl)c1 [I-142] | 90 to 100% | 90 to 100% | 90 to 100%
28 | Cc1ccc(C(F)CNC(=O)c2c(Oc3cccc(C(F)(F)F)c3)nnc3c2COCC3)c(C)c1 (stereo not drawn) [I-123] | 90 to 100% | 90 to 100% | 90 to 100%
29 | Cc1ccc(C(F)(F)CNC(=O)c2c(Oc3cccc(C4CC4)c3F)nnc3c2CCCC3)c(C)c1 [I-131] | 90 to 100% | 90 to 100% | 90 to 100%
30 | Cc1ccc(C(F)(F)CNC(=O)c2c(Oc3cccc(C(F)F)c3)nnc3c2CCCC3)c(C)c1 [I-129] | 90 to 100% | 90 to 100% | 90 to 100%
31 | Cc1ccc(C(F)(F)CNC(=O)c2c(Oc3cccc(Cl)c3)nnc3c2CCCC3)c(Cl)c1 [I-139] | 90 to 100% | 90 to 100% | 90 to 100%
32 | Cc1ccc(C(F)(F)CNC(=O)c2c(Oc3cccc(C4CC4)c3F)nnc3c2CCCC3)c(Cl)c1 [I-141] | 90 to 100% | 90 to 100% | 90 to 100%
33 | O=C(NCC(F)c1ccc(Cl)cc1Cl)c1c(Oc2cccc(Cl)c2F)nnc2c1CCC2 (stereo not drawn) [I-188] | 90 to 100% | 90 to 100% | 90 to 100%
34 | Cc1ccc(C(F)(F)CNC(=O)c2c(Oc3cccc(C(F)(F)F)c3)nnc3c2CCCC3)c(Cl)c1 [I-239] | 90 to 100% | 90 to 100% | 90 to 100%
35 | Cc1ccc(C(F)(F)CNC(=O)c2c(Oc3cccc(Cl)c3F)nnc3c2CCC3)c(C)c1 [I-133] | 90 to 100% | 90 to 100% | 90 to 100%
36 | Cc1cc(Cl)ccc1C(F)(F)CNC(=O)c1c(Oc2cccc(Cl)c2F)nnc2c1CCC2 [I-148] | 90 to 100% | 90 to 100% | 80 to 89%
37 | Cc1cc(Br)ccc1C(F)(F)CNC(=O)c1c(Oc2cccc(C(F)F)c2)nnc2c1CCCC2 [I-150] | 90 to 100% | 90 to 100% | 90 to 100%
38 | Cc1ccc([C@@H](F)CNC(=O)c2c(Oc3cccc(C(F)(F)F)c3)nnc3ccccc23)cc1C (racemic) [I-084] | 90 to 100% | 90 to 100% | 90 to 100%
39 | Cc1ccc2c(C(=O)NCC(F)(F)c3ccc(C)c(C)c3)c(Oc3cccc(C(F)(F)F)c3)nnc2c1 [I-246] | 90 to 100% | 80 to 89% | 90 to 100%
40 | Cc1ccc(C(F)(F)CNC(=O)c2c(Oc3cccc(C(F)(F)F)c3)nnc3cc(C)ccc23)c(Cl)c1 [I-245] | 90 to 100% | 80 to 89% | 80 to 89%
41 | Cc1ccc(CCNC(=O)c2c(Oc3cccc(C4CC4)c3F)nnc3ccccc23)c(C)c1 [I-070] | 90 to 100% | 90 to 100% | 90 to 100%
42 | O=C(NC[C@H](F)c1ccc(Cl)cc1Cl)c1c(Oc2cccc(C3CC3)c2F)nnc2ccccc12 (racemic) [I-072] | 90 to 100% | 90 to 100% | 90 to 100%
43 | Cc1ccc(C(F)(F)CNC(=O)c2c(Oc3cccc(Br)c3)nnc3ccccc23)c(C)c1 [I-216] | 90 to 100% | 90 to 100% | 80 to 89%
